We go through 9 molecules from ChEMBL document CHEMBL5257060, “Trust Your Gut: Strategies and Tactics for Intestinally Restricted Drugs” (ACS Med Chem Lett, 2023).

As a reminder, the IC50 is the concentration that inhibits the measured activity by half. A low value points to inhibition by little substance. Broadly, the Cmax is the maximum level reached in the sampled fluid or tissue. The EC50 is the concentration needed to bring the measured effect to its halfway point. A high value points to a need for much substance. The Papp A→B is how fast a substance crosses the layer from the apical side. One may read the AUC as the area under the concentration-time curve, a measure of exposure. Lower therefore signals low exposure. What is called efflux ratio is the permeability from basolateral to apical divided by that in the opposite direction, in the common usage. As usually defined, the Papp is a coefficient for how fast a substance crosses the barrier.

Molecules are shown by their SMILES.

Data set [1] concerns the target T1, Sodium/hydrogen exchanger 3 (Homo sapiens, UniProt P48764).
T1 sequence (P48764 whole entry): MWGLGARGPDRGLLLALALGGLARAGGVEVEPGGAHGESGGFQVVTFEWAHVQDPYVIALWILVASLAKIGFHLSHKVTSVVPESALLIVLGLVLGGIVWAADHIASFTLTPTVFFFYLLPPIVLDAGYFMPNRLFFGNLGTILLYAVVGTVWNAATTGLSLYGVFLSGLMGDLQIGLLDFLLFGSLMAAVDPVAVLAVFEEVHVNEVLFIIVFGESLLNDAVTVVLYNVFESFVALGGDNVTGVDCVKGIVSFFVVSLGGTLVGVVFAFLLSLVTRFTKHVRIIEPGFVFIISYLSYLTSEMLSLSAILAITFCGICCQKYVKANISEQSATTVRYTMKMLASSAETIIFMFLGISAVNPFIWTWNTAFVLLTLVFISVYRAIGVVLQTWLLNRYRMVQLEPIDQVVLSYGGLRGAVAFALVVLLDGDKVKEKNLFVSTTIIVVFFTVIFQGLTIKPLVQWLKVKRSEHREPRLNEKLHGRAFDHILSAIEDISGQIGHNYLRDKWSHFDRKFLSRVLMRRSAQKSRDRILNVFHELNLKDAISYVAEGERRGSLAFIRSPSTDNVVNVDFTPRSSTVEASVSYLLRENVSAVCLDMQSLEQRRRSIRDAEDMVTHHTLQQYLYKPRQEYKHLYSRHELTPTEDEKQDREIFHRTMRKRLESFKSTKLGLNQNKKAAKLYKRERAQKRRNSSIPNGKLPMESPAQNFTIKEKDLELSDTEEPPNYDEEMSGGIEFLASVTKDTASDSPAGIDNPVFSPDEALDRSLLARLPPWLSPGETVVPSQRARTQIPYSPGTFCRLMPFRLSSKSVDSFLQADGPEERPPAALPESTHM
The experiment in a line: Inhibition of human NHE3.

Data set [2] is described as follows: Cmax in rat at 30 mg/kg, po. Type of data set: ADME, organism-based. Also on record: dose 30 mg/kg, route po. The conditions noted are these: in vivo.
The nature of data set [3]: Drug recovery in feces of rats at 30 mg/kg, po. In kind it is ADME, organism-based. The conditions noted are these: rat, faeces, read-out: Drug recovery.
The target of data set [4] is T2, G-protein coupled bile acid receptor 1 (Mus musculus, UniProt Q80SS6).
T2 sequence (Q80SS6 whole entry): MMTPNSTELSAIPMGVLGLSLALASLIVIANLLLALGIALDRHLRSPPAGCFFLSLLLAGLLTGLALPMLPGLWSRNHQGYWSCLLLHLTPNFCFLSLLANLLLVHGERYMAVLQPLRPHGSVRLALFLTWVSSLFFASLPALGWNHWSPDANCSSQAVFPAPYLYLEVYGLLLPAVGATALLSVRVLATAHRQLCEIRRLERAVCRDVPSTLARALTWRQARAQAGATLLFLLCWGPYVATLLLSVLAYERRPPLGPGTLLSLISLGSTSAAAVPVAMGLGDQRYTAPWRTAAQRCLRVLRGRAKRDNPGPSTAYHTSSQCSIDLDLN
The experiment in a line: Inhibition of mouse TGR5.

Data set [5] is described as follows: Apparent permeability across apical to basolateral side in human Caco-2 cells. In kind it is ADME, cell-based.
The nature of data set [6]: AUC in mouse at 5 mg/kg, po. Type of data set: ADME, organism-based. Also on record: dose 5 mg/kg, route po. The settings on record: in vivo.
Data set [7] is described as follows: Drug recovery in feces of mouse at 5 mg/kg, po. Type of data set: ADME, organism-based. The conditions noted are these: faeces, read-out: Drug recovery.
The nature of data set [8]: Drug concentration in mouse plasma at 30 mg/kg, po measured for 2 hr. Type of data set: ADME, organism-based.
A short description of data set [9]: Drug concentration in mouse intestine at 30 mg/kg, po measured for 2 hr. Type of data set: ADME, organism-based. The settings on record: read-out: Ct.
The nature of data set [10]: Cmax in ICR mouse plasma at 150 mg/kg, po measured at 1 hr post dose. In kind it is ADME, organism-based. Also on record: time 1 hrs, dose 150 mg/kg, route po.
A short description of data set [11]: Apparent permeability across apical to basolateral side in human Caco-2 cells by PAMPA assay. In kind it is ADME, cell-based. (In general: Passage across Caco-2 layers is used to estimate intestinal permeability.)
Another data set addresses Dipeptidyl peptidase 4 (Mus musculus, UniProt P28843). The experiment in a line: Inhibition of mouse DPP4.
Data set [12] in a line: Efflux ratio of apparent permeability in human Caco-2 cells. In kind it is ADME, cell-based.
A short description of data set [13]: Cmax in mouse colon at 10 mg/kg, po. In kind it is ADME, organism-based. Also on record: dose 10 mg/kg, route po.
Data set [14] in a line: Cmax in mouse plasma at 10 mg/kg, po. Type of data set: ADME, organism-based. Also on record: dose 10 mg/kg, route po.
The nature of data set [15]: Apparent permeability in human Caco-2 cells. In kind it is ADME, cell-based.
A short description of data set [16]: Cmax in rat plasma at 10 mg/kg, po. In kind it is ADME, organism-based. Also on record: dose 10 mg/kg, route po.
Data set [17] in a line: Cmax in mouse colon content at 10 mg/kg, po. Type of data set: ADME, organism-based. Details: dose 10 mg/kg, route po.
Data set [18] can be described thus: Drug recovery in feces of rats at 20 mg, po. Type of data set: ADME. The conditions noted are these: rat, faeces, read-out: Drug recovery.

Sequence of Dipeptidyl peptidase 4 (P28843 whole entry): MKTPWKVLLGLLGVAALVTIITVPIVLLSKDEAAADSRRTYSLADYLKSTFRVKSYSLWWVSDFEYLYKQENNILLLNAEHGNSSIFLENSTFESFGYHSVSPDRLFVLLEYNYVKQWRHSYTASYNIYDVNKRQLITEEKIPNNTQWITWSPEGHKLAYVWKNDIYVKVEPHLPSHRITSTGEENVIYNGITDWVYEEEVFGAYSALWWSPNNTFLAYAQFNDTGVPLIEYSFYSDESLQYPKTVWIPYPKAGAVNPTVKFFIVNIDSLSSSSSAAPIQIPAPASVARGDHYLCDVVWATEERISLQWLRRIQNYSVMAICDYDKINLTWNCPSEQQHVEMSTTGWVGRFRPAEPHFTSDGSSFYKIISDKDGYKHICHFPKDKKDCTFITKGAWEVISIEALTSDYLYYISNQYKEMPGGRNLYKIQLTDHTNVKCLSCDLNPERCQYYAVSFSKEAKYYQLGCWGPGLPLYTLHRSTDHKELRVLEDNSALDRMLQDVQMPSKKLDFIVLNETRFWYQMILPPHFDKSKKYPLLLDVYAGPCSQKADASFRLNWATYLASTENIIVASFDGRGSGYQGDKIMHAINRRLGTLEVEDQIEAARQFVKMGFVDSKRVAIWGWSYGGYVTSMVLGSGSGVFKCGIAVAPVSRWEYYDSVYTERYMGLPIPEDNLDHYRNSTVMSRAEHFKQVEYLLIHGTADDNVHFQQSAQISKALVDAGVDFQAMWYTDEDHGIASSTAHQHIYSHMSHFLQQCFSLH

Turning to `CN1Cc2c(Cl)cc(Cl)cc2[C@@H](c2cccc(S(=O)(=O)NCCOCCOCCNC(=O)NCCCCNC(=O)NCCOCCOCCNS(=O)(=O)c3cccc([C@@H]4CN(C)Cc5c(Cl)cc(Cl)cc54)c3)c2)C1`, in [1], inhibition was half-maximal at 0.5 nM (IC50). Also, in data set [2], the Cmax is under 0.5 ng/mL. The dose excreted in [3] came out at 92%.

Turning to `CO[C@@H]1C[C@@H]2C[C@H](O)CC[C@]2(C)[C@H]2CC[C@]3(C)[C@@H]([C@H](C)CCC(=O)N(C)C[C@H](O)[C@@H](O)[C@H](O)[C@H](O)CO)CC[C@H]3[C@H]12`, in data set [4], a half-maximal response (EC50) required 62.3 nM.

Regarding `CO[C@@H]1CC[C@@]2(C)[C@H](CC(OS(=O)(=O)[O-])[C@@H]3[C@@H]2CC[C@]2(C)[C@@H]([C@H](C)CCc4nnn[nH]4)CC[C@@H]32)C1.[Na+]` (some centres not stated), the Papp A→B in data set [5] came to 0.4 ×10⁻⁶ cm/s. In addition, the AUC in data set [6] stood at 4840 ng·h/mL. The dose excreted in data set [7] stood at 89%.

For the molecule `Cc1cc(C)c(S(=O)(=O)N(CCc2cccc(Br)c2)Cc2ccc(-c3cccc(S(C)(=O)=O)c3)cc2)c(C)c1`, the concentration at 2 h came out at 0.006 µM in data set [8] and 30 µM in data set [9].

Molecule `CC#CCn1c(N2CCC[C@H](NC(=O)CCOCCOCCOCCOCCOCCOCCN(C)C(=O)CCc3cc(Cl)c(Oc4ccncc4C(=O)N4CCN(C5CC5)c5ccccc54)cc3Cl)C2)nc2c1c(=O)n(Cc1nc(C)c3ccccc3n1)c(=O)n2C` came in with a Cmax in data set [10] of 101 ng/mL. Besides, the Papp A→B in data set [11] came to 0.03 ×10⁻⁶ cm/s. Moreover, the IC50 at Dipeptidyl peptidase 4 was found to be 70000 nM. In addition, the EC50 in data set [4] came to 17 nM.

As to `CN(CC[N+](C)(C)C)C(=O)CCc1cc(Cl)c(Oc2ccsc2C(=O)N2CCN(C3CC3)c3ccccc32)cc1Cl.O=C([O-])C(F)(F)F`, in [5], the Papp A→B is 0.06 ×10⁻⁶ cm/s.

In the case of `Cc1cc(Nc2cc3ncccc3c(NC3C[C@H]4CC[C@@H](C3)N4CCC#N)n2)n[nH]1` (some centres not stated), the efflux ratio in data set [12] is 32.5. Besides, the Cmax worked out at 9.17 µM in [13] and 0.003 µM in data set [14]. Further, the Papp in data set [15] is 1.17 ×10⁻⁶ cm/s.

For `Cc1cccc(Oc2cc(Oc3cccc(C)n3)cc(Oc3cccc(C)n3)c2)n1` [AMELENODOR], the Cmax in data set [13] was 150000 ng/g; in data set [16] it was 57 ng/mL; in data set [17] it was 1e+07 ng/g.

For `CCCCC1(CCCC)CS(=O)(=O)c2ccc(N(C)C)cc2[C@@H](c2ccc(OCc3ccc(C[N+]45CCN(CC4)CC5)cc3)cc2)[C@H]1O` [MARALIXIBAT], the dose excreted in [18] was determined as 94%.
